Tests used:
[1] = test system: HCC2935 lung cancer cells; experiment: Alamar Blue proliferation assay, HCC2935; assay type: cell-based, human; settings: HCC2935, 30 nM, 72 h, relative to NC miRNA (100%)
Text: The inventors assessed the therapeutic effect of hsa-miR-126 for lung cancer by using 11 individual lung cancer cell lines. To measure cellular proliferation of lung cancer cells, the following non-small cell lung cancer (NSCLC) cells were used: cells derived from lung adenocarcinoma (A549, H1299, H522, H838, Calu-3, HCC827, HCC2935), cells derived from lung squamous cell carcinoma (H520, H226), cells derived from lung bronchioalveolar carcinoma (H1650), and cells derived from lung large cell carcinoma (H460). Synthetic hsa-miR-126 (Pre-miR™-hsa-miR-126, Ambion cat. no. AM17100) or negative control (NC) miRNA (Pre-miR™ microRNA Precursor Molecule-Negative Control #2; Ambion cat. no. AM17111) was delivered via lipid-based transfection into A549, H1299, H522, H838, Calu-3, HCC827, HCC2935, H520, H1650, and H460 cells, and via electroporation into H226 cells.
Lipid-based reverse transfections were carried out in triplicate according to a published protocol (Ovcharenko et al., 2005) and the following parameters: Cells (5,000-12,000 per 96 well), 0.1-0.2 μl Lipofectamine™ 2000 (cat. no. 11668-019, Invitrogen Corp., Carlsbad, Calif., USA) in 20 μl OptiMEM (Invitrogen), 30 nM final concentration of miRNA in 100 μl. […]

[2] = test system: human A549 lung cancer xenografts; experiment: A549 lung cancer xenograft, cells electroporated before implantation; assay type: in vivo, NOD/SCID mice
Experimental: The inventors assessed the growth-inhibitory activity of hsa-miR-126 in human lung cancer xenografts grown in immunodeficient mice. Hsa-miR-126 was delivered into A549 and H460 lung cancer cells via electroporation using the Gene Pulser Xcell™ (BioRad) with the following settings: 15×10^6 cells with 5 μg miRNA in 200 μl OptiMEM, square wave pulse at 150 V for 10 ms. Electroporated cells (5×10^6) were mixed with BD Matrigel™, (BD Biosciences; San Jose, Calif., USA; cat. no. 356237) in a 1:1 ratio and injected subcutaneously into the flank of NOD/SCID mice (Charles River Laboratories, Inc.; Wilmington, Mass., USA). As a negative control, A549 and H460 cells were electroporated with negative control (NC) miRNA (Pre-miR™ microRNA Precursor Molecule-Negative Control #2; Ambion cat. no. AM17111) as described above. To assess the anti-oncogenic activity of hsa-miR-126, six animals were injected with A459 cells and six animals were injected with H460 cells. NC miRNA-treated cells were injected into the opposite flank of the same animal to control for animal-to-animal variability. Once tumors reached a measurable size (A549 at 7 days post injection; H460 at 5 days post injection), the length and width of tumors were determined every day for up to 11 days. Tumor volumes were calculated using the formula, Volume=length X width X width/2, in which the length is greater than the width. For animals carrying A549 xenografts, tumor volumes derived from NC-treated cells and hsa-miR-126-treated cells were averaged and plotted over time (FIG. 4). The p value, indicating statistical significance, is shown for values obtained on day 18 (p=0.0125).

[3] = test system: established H460 lung tumors; experiment: Established H460 lung tumors, intratumoral injections; assay type: in vivo, NOD/SCID mice; settings: H460, 6.25 μg intratumoral with siPORT amine on days 11, 14, 17
Text: Delivery of hsa-miR-126 into human lung cancer cells prior to implantation into the animal inhibited the formation of lung tumor xenografts. […] To explore this possibility, each 3×10^6 human H460 non-small lung cancer cells were mixed with BD Matrigel™, (BD Biosciences; San Jose, Calif., USA; cat. no. 356237) in a 1:1 ratio and subcutaneously injected into the lower back of 23 NOD/SCID mice (Charles River Laboratories, Inc.; Wilmington, Mass., USA). Once animals developed palpable tumors (day 11 post xenograft implantation), a group of six animals received intratumoral injections of each 6.25 μg hsa-miR-126 (Dharmacon, Inc., Lafayette, Colo., USA) formulated with the lipid-based siPORT™ amine delivery agent (Ambion, Austin, Tex.; cat. no. AM4502) on days 11, 14 and 17. A control group of six animals received intratumoral injections of each 6.25 μg negative control miRNA (NC; Dharmacon, Lafayette, Colo.), following the same injection schedule that was used for hsa-miR-126. Given an average mouse weight of 20 g, this dose equals 0.3125 mg/kg. […] Caliper measurements were taken every 1-2 days, and tumor volumes were calculated using the formula, Volume=length×width×width/2, in which the length is greater than the width.

## hsa-miR-126 (UCGUACCGUGAGUAAUAAUGC; synthetic pre-miR form, further chemistry not given here) [Synthetic hsa-miR-126 (Pre-miR™-hsa-miR-126, Ambion cat. no. AM17100)]
[1]
  % proliferation: 66.89%
[2]; A549, day 18, n=6
  tumor size relative to control tumors: all animals showed smaller tumors
[2]; A549 cells electroporated with miRNA before s.c. implantation
  tumor growth in vivo: inhibited tumor growth in vivo
[2]; A549 tumors
  Ki-67 antigen in tumors (histology): diminished levels of the Ki-67 antigen
[3]
  growth of established tumors: robustly inhibited growth of established H460 lung tumors

Source: patent US20090131354A1, “miR-126 REGULATED GENES AND PATHWAYS AS TARGETS FOR THERAPEUTIC INTERVENTION” (priority 2007, published 2009)
